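Dose response: 5 concentrations. Exposure: 48 h. Format: 96-well plates. Endpoint: linear interpolation; highest concentration if not reached. TGI denotes the concentration required for complete inhibition of growth.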
Assays:
DMS 114 small cell lung = assay: DTP human tumour cell line panel, 48 h
DLD-1 colon = assay: DTP human tumour cell line panel, 48 h

Work on `O=C1CC2CC3OC3[C@H]3c4cc5c(cc4C(=O)N1C23)OCO5` (some centres not stated) yielded a TGI (DMS 114 small cell lung) greater than 100 µM.

`CC(=O)Nc1ccc(C(=O)NN2C(=O)C(Cl)/C2=C/c2ccco2)cc1` (configuration not stated) gave a TGI (DLD-1 colon) greater than 100 µM.

— PubChem BioAssay (NCI)
